In the NIST ThermoML archive (doi:10.1016/j.jct.2011.06.013):

How the values were obtained:
[1] = 101.33 kPa, Liquid; for viscosity: Falling or rolling sphere viscometry
[2] = xn = mol fraction of the nth substance listed; details: 101 kPa, Liquid; for viscosity: Falling or rolling sphere viscometry

OCCOCCOCCO [triethylene glycol]
[1]
Details	mass density [kg/m3]
293.15 K, Pycnometric method	1123.06
298.15 K, Buoyancy - hydrostatic balance	1119.75
312.96 K, Buoyancy - hydrostatic balance	1109.61
313.15 K, Pycnometric method	1109.47
314.15 K, Pycnometric method	1108.77
333.25 K, Pycnometric method	1094.96
334.85 K, Pycnometric method	1093.76
334.96 K, Buoyancy - hydrostatic balance	1093.69
349.25 K, Buoyancy - hydrostatic balance	1082.8
352.55 K, Pycnometric method	1080.21
352.85 K, Pycnometric method	1079.98
364.44 K, Buoyancy - hydrostatic balance	1070.74
367.25 K, Pycnometric method	1068.46
381.45 K, Pycnometric method	1056.66
411.65 K, Pycnometric method	1030.16
413.73 K, Buoyancy - hydrostatic balance	1028.27
433.75 K, Pycnometric method	1009.54
461.56 K, Pycnometric method	982.12
462.25 K, Buoyancy - hydrostatic balance	981.42
476.35 K, Pycnometric method	966.87

[1]
Details	viscosity [mPa·s]
298.15 K	36.82
312.96 K	19.03
334.96 K	9.002
349.25 K	5.945
364.44 K	4.131
413.73 K	1.679
462.25 K	0.997

OCCOCCO [diethylene glycol] + OCCO
mass density [kg/m3], [2]
Details	298.15 K	318.55 K	322.34 K	333.45 K	353.83 K	367.15 K	392.87 K	436.08 K	462.75 K
Buoyancy - hydrostatic balance, x2 = 0.5	1112.21	–	1097.38	–	1075.19	–	1043.14	1001.82	973.24
Pycnometric method, x1 = 0.5	1112.21	1099.83	–	1089.92	–	1064.82	–	–	–

[2], x1 = 0.5
Details	viscosity [mPa·s]
298.15 K	21.12
322.34 K	8.316
353.83 K	3.488
392.87 K	1.641
436.08 K	0.885
462.75 K	0.671

OCCOCCOCCO [triethylene glycol] + OCCOCCO
mass density [kg/m3], [2]
Details	298.15 K	322.43 K	355.15 K	391.02 K	432.13 K	473.1 K
Buoyancy - hydrostatic balance, x2 = 0.5	1116.28	1104.5	1083.98	1055.33	1014.59	965.58
Pycnometric method, x1 = 0.5	1115.61	–	–	–	–	–

[2], x1 = 0.5
Details	viscosity [mPa·s]
298.15 K	32.4
322.43 K	11.71
355.15 K	4.468
391.02 K	2.179
432.13 K	1.172
473.1 K	0.716

OCCOCCO [diethylene glycol]
mass density [kg/m3], [1]
Details	Buoyancy - hydrostatic balance	Pycnometric method
293.15 K	1117.04	1117.04
298.15 K	1114.02	–
312.6 K	1104.9	–
313.15 K	–	1104.54
314.15 K	–	1103.88
329.28 K	1093.62	–
333.25 K	–	1090.82
334.85 K	–	1089.68
344.99 K	1082.27	–
349.77 K	1078.67	–
352.55 K	–	1076.55
352.85 K	–	1076.32
366.77 K	1065.35	–
367.25 K	–	1064.96
381.65 K	–	1053.01
411.05 K	–	1026.74
413.65 K	1024.3	–
434.45 K	–	1004.06
464.05 K	973.11	–

[1]
Details	viscosity [mPa·s]
293.15 K	36.52
298.15 K	28.36
312.6 K	15.25
329.28 K	8.458
344.99 K	5.34
349.77 K	4.809
366.77 K	3.231
413.65 K	1.409
464.05 K	0.789

OCCO [1,2-ethanediol]
mass density [kg/m3], [1]
Details	Buoyancy - hydrostatic balance	Pycnometric method
293.15 K	1113.58	1113.58
312.46 K	1100.88	–
314.45 K	–	1099.52
333.25 K	–	1086.3
333.55 K	–	1086.09
334.87 K	1085.13	–
349.24 K	1074.46	–
352.85 K	–	1071.71
353.65 K	–	1071.1
357.05 K	–	1068.48
365.7 K	1061.7	–
367.25 K	–	1060.47
380.82 K	1049.47	–
381.45 K	–	1048.95
395.55 K	1037.07	–
411.65 K	–	1023
421.7 K	1013.93	–
433.75 K	–	1002.77
461.55 K	–	975.83
464.4 K	972.98	–

[1]
Details	viscosity [mPa·s]
293.15 K	21.1
312.46 K	9.925
334.87 K	4.949
349.24 K	3.517
365.7 K	2.39
380.82 K	1.815
395.55 K	1.419
421.7 K	0.96
464.4 K	0.652

OCCOCCOCCO [triethylene glycol] + OCCO
mass density [kg/m3], [2]
Details	298.13 K	298.15 K	322.36 K	355.34 K	392.2 K	434.59 K	462.61 K
Buoyancy - hydrostatic balance, x2 = 0.5	1115.1	–	1101.75	1079	1047.37	1002.88	968.72
Pycnometric method, x1 = 0.5	–	1115.45	–	–	–	–	–

[2], x1 = 0.5
Details	viscosity [mPa·s]
298.13 K	26.24
322.36 K	10.13
355.34 K	3.999
392.2 K	1.946
434.59 K	1.058
462.61 K	0.705
